Test results: ChEMBL document CHEMBL5518206, “Hit-to-Lead Identification and Validation of a Triaromatic Pleuromutilin Antibiotic Candidate” (J Med Chem, 2024)
Converted amounts (≈) assume the structure as drawn.

Columns and labels:
[1] = Solubility of the compound in Dulbecco's PBS at 20 degree C measured after 24 hrs
[2] = Inhibition of P-gp efflux in MDCKII-MDR1 cells using calcein-AM as substrate assessed as intracellular calcein fluorescence preincubated for 15 mins followed by substrate addition and measured by fluorescence based assay; type: cell-based; settings: Canis lupus familiaris
Staphylococcus aureus = experiment: Antibacterial activity against multi drug-resistant Staphylococcus aureus USA300 FPR3757 assessed as inhibition of visible growth incubated for 20 to 24 hrs by microbroth serial dilution assay; type: functional; settings: time 20-24 hrs, read-out: MIC100
Streptococcus pneumoniae = experiment: Antibacterial activity against Streptococcus pneumoniae assessed as inhibition of visible growth incubated for 20 to 24 hrs by microbroth serial dilution assay; type: functional; settings: time 20-24 hrs, read-out: MIC100
Enterococcus faecalis = experiment: Antibacterial activity against Enterococcus faecalis assessed as inhibition of visible growth incubated for 20 to 24 hrs by microbroth serial dilution assay; type: functional; settings: time 20-24 hrs, read-out: MIC100
Enterococcus faecium [3] = experiment: Antibacterial activity against Vancomycin-resistant Enterococcus faecium assessed as inhibition of visible growth incubated for 20 to 24 hrs by microbroth serial dilution assay; type: functional; settings: time 20-24 hrs, read-out: MIC100
Enterococcus faecium [4] = experiment: Antibacterial activity against Linezolid/Ampicillin/ciprofloxacin/Vancomycin-resistant Enterococcus faecium assessed as inhibition of visible growth incubated for 20 to 24 hrs by microbroth serial dilution assay; type: functional; settings: time 20-24 hrs, read-out: MIC100
MDCK-MDR1 = experiment: Cytotoxicity against MDCKII-MDR1 cells assessed as cell viability at 100 uM measured by MTT assay; type: toxicity, cell-based, Canis lupus familiaris; settings: dog, mdck-mdr1, 100 µM
in vitro [5] = settings: mouse
in vitro [6] = settings: mouse; remark: listed apart in the source
in vitro [7] = settings: human
in vitro [8] = settings: human; remark: listed apart in the source
in vitro [9] = settings: pig, microsomes
in vitro [10] = settings: pig, microsomes; remark: listed apart in the source

Structure (SMILES) | solubility at 24 h [1] [µM] | IC50 [2] [µM] | MIC (Staphylococcus aureus) [µg/mL] | MIC (Streptococcus pneumoniae) [µg/mL] | MIC (Enterococcus faecalis) [µg/mL] | MIC (Enterococcus faecium [3]) [µg/mL] | MIC (Enterococcus faecium [4]) [µg/mL] | Activity (MDCK-MDR1) | half-life at 0.5 h, 1 µM (in vitro [5]; liver microsomes) [min] | CLint scaled at 0.5 h, 1 µM (in vitro [6]; liver microsomes) [L/h/kg] | half-life at 0.5 h, 1 µM (in vitro [7]; liver microsomes) [min] | CLint scaled at 0.5 h, 1 µM (in vitro [8]; liver microsomes) [L/h/kg] | half-life at 0.5 h, 1 µM (in vitro [5]; microsomes) [min] | CLint scaled at 0.5 h, 1 µM (in vitro [6]; microsomes) [L/h/kg] | half-life at 0.5 h, 1 µM (in vitro [7]; microsomes) [min] | CLint scaled at 0.5 h, 1 µM (in vitro [8]; microsomes) [L/h/kg] | half-life at 0.5 h, 1 µM (in vitro [9]) [min] | CLint scaled at 0.5 h, 1 µM (in vitro [10]) [L/h/kg]
C=C[C@]1(C)C[C@@H](OC(=O)Cn2cc(-c3ccc([C@@H](C)n4cnc5c(N)ncnc54)cc3)nn2)[C@]2(C)[C@H](C)CC[C@]3(CCC(=O)[C@H]32)[C@@H](C)[C@@H]1O | 2.6 (≈ 1.73 µg/mL) | 50 | 0.12 (≈ 0.18 µM) | 0.25 (≈ 0.375 µM) | 0.5 (≈ 0.75 µM) | 0.25 (≈ 0.375 µM) | 0.25 (≈ 0.375 µM) | – | – | – | – | – | – | – | – | – | – | –
C=C[C@]1(C)C[C@@H](OC(=O)Cn2cc(-c3ccc(Cn4cnc5c(N)ncnc54)nc3)nn2)[C@]2(C)[C@H](C)CC[C@]3(CCC(=O)[C@H]32)[C@@H](C)[C@@H]1O | 6.7 (≈ 4.38 µg/mL) | 98 | 0.03 (≈ 0.0459 µM) | 0.25 (≈ 0.382 µM) | 0.25 (≈ 0.382 µM) | 0.12 (≈ 0.184 µM) | 0.12 (≈ 0.184 µM) | Non-Toxic | 0.58 | 571 | 1.9 | 194 | – | – | – | – | – | –
C=C[C@]1(C)C[C@@H](OC(=O)Cn2cc(-c3ccc(Cn4cnc5c(N)ncnc54)c(OC)c3)nn2)[C@]2(C)[C@H](C)CC[C@]3(CCC(=O)[C@H]32)[C@@H](C)[C@@H]1O | 2.2 (≈ 1.5 µg/mL) | 46 | 0.06 (≈ 0.0879 µM) | 0.25 (≈ 0.366 µM) | 0.25 (≈ 0.366 µM) | 0.12 (≈ 0.176 µM) | 0.12 (≈ 0.176 µM) | – | – | – | – | – | – | – | – | – | – | –
C=C[C@]1(C)C[C@@H](OC(=O)Cn2cc(-c3ccc(Cn4cnc5c(N)ncnc54)c(O)c3)nn2)[C@]2(C)[C@H](C)CC[C@]3(CCC(=O)[C@H]32)[C@@H](C)[C@@H]1O | 2.5 (≈ 1.67 µg/mL) | > 100 | 0.03 (≈ 0.0449 µM) | 0.25 (≈ 0.374 µM) | 0.25 (≈ 0.374 µM) | 0.25 (≈ 0.374 µM) | 0.25 (≈ 0.374 µM) | Non-Toxic | 0.56 | 586 | 1.2 | 317 | – | – | – | – | – | –
C=C[C@]1(C)C[C@@H](OC(=O)Cn2cc(-c3ccc([C@H](C)n4cnc5c(N)ncnc54)cc3)nn2)[C@]2(C)[C@H](C)CC[C@]3(CCC(=O)[C@H]32)[C@@H](C)[C@@H]1O | – | 81 | 0.12 (≈ 0.18 µM) | 1 (≈ 1.5 µM) | 1 (≈ 1.5 µM) | 0.5 (≈ 0.75 µM) | 0.5 (≈ 0.75 µM) | – | – | – | – | – | – | – | – | – | – | –
C=C[C@]1(C)C[C@@H](OC(=O)Cn2cc(-c3ccc(Cn4cnc5c(N)nc(N)nc54)cc3)nn2)[C@]2(C)[C@H](C)CC[C@]3(CCC(=O)[C@H]32)[C@@H](C)[C@@H]1O | 1.9 (≈ 1.27 µg/mL) | > 100 | 0.06 (≈ 0.0898 µM) | 0.5 (≈ 0.749 µM) | 0.25 (≈ 0.374 µM) | 0.12 (≈ 0.18 µM) | 0.12 (≈ 0.18 µM) | Non-Toxic | – | – | – | – | – | – | – | – | – | –
O=C(O)Cc1ccccc1Nc1c(Cl)cccc1Cl [DICLOFENAC] | – | – | – | – | – | – | – | – | – | – | – | – | 51.7 | 6.36 | 18.8 | 19.9 | 37.9 | 8.7
C=C[C@]1(C)C[C@@H](OC(=O)Cn2cc(-c3ccc(Cn4cnc5c(N6CCNCC6)ncnc54)cc3)nn2)[C@]2(C)[C@H](C)CC[C@]3(CCC(=O)[C@H]32)[C@@H](C)[C@@H]1O | 31 (≈ 22.4 µg/mL) | 10 | 0.25 (≈ 0.346 µM) | 0.25 (≈ 0.346 µM) | 0.25 (≈ 0.346 µM) | 0.06 (≈ 0.0831 µM) | 0.12 (≈ 0.166 µM) | – | – | – | – | – | – | – | – | – | – | –
C=C[C@]1(C)C[C@@H](OC(=O)Cn2cc(-c3ccc([C@H](C)n4cnc5c(N6CCNCC6)ncnc54)cc3)nn2)[C@]2(C)[C@H](C)CC[C@]3(CCC(=O)[C@H]32)[C@@H](C)[C@@H]1O | – | – | 0.5 (≈ 0.679 µM) | 0.5 (≈ 0.679 µM) | 0.5 (≈ 0.679 µM) | 0.5 (≈ 0.679 µM) | 0.5 (≈ 0.679 µM) | – | – | – | – | – | – | – | – | – | – | –
C=C[C@]1(C)C[C@@H](OC(=O)Cn2cc(-c3ccc([C@@H](C)n4cnc5c(N6CCNCC6)ncnc54)cc3)nn2)[C@]2(C)[C@H](C)CC[C@]3(CCC(=O)[C@H]32)[C@@H](C)[C@@H]1O | 10 (≈ 7.36 µg/mL) | 7 | 0.25 (≈ 0.34 µM) | 0.25 (≈ 0.34 µM) | 0.5 (≈ 0.679 µM) | 0.25 (≈ 0.34 µM) | 0.25 (≈ 0.34 µM) | – | – | – | – | – | – | – | – | – | – | –
